Results published in patent US20110038948A1, “Methods of Reducing the Production of Reactive Oxygen Species and Methods of Screening or Identifying Compounds and Compositions that Reduce the Production of Reactive Oxygen Species” (UNIVERSITY OF TENNESSEE RESEARCH FOUNDATION, priority 2005, published 2011).

How the values were obtained:
3T3-L1 adipocytes [1] = assay: Cytokine antibody array of culture medium; assay type: cell-based, mouse
Method: (§1) RAW 264 macrophages and 3T3-L1 preadipocytes (American Type Culture Collection) were incubated at a density of 8000 cells/cm2 (10 cm2 dish) and grown in Dulbecco's modified Eagle's medium (DMEM) containing 10% FBS and antibiotics (adipocyte medium) at 37° C. in 5% CO2 in air. Confluent 3T3-L1 preadipocytes were induced to differentiate with a standard differentiation medium consisting of DMEM-F10 (1:1, vol/vol) medium supplemented with 1% FBS, 1 μM dexamethasone, IBMX (0.5 mM) and antibiotics (1% Penicillin-Streptomycin). Preadipocytes were maintained in this differentiation medium for 3 days and subsequently cultured in adipocyte medium. Cultures were re-fed every 2-3 days to allow 90% cells to reach fully differentiation for 3T3-L1 adipocytes or grow to a confluence for RAW 264 before conducting chemical treatment.
(§2) Human adipocytes (Zen-Bio, Inc.), 3T3-L1 adipocytes, RAW264 macrophages were obtained and co-cultured by using transwell inserts with 0.4 μm porous membranes (Corning) to separate adipocytes and macrophages. All data are expressed as mean±SEM. Data were evaluated for statistical significance by analysis of one-way or two-way variance (ANOVA; means with different letter differ, p<0.05).
A TansSignal™ mouse cytokine antibody array kit (Panomics, Fremont, Calif.) was used to detect cytokine protein released in culture medium according to the manufacture's instruction. […]

3T3-L1 adipocytes [2] = assay: Intracellular ROS generation in cultured adipocytes (H2-DCFDA); assay type: cell-based, mouse; conditions: compound plus glucose 30 mmol/L, 48 hours
Method: 3T3-L1 preadipocytes were incubated at a density of 8000 cells/cm^2 (10 cm^2 dish) and grown in Dulbecco's modified Eagle's medium (DMEM) containing 10% FBS and antibiotics (adipocyte medium) at 37° C. in 5% CO2 in air. Confluent preadipocytes were induced to differentiate with a standard differentiation medium consisting of DMEM-F10 (1:1, vol/vol) medium supplemented with 1% FBS, 1 μM dexamethasone, IBMX (0.5 mM) and antibiotics (1% Penicillin-Streptomycin). Preadipocytes were maintained in this differentiation medium for 3 days and subsequently cultured in adipocyte medium. Cultures were re-fed every 2-3 days to allow 90% of cells to reach full differentiation before conducting chemical treatment. Chemicals were freshly diluted in adipocyte medium before treatment. Cells were washed with fresh adipocyte medium, re-fed with medium containing the different treatments, and incubated at 37° C. in 5% CO2 in air before analysis. Cell viability was measured via trypan blue exclusion. […] Cells were loaded with H2-DCFDA (2 μmol/L) 30 minute before the end of the incubation period (48 h). After washing twice with PBS, cells were scraped and disrupted by sonication on ice (20 s). Fluorescence (emission 543 nm or 527 nm) and DNA content were then measured as described previously. The intensity of fluorescence was expressed as arbitrary units per ng DNA.

NADPH oxidase = NADPH oxidase expression in cultured adipocytes; assay type: cell-based, mouse; conditions: glucose 30 mmol/L alone or plus compound, 48 hours
Method: 3T3-L1 preadipocytes were incubated at a density of 8000 cells/cm^2 (10 cm^2 dish) and grown in Dulbecco's modified Eagle's medium (DMEM) containing 10% FBS and antibiotics (adipocyte medium) at 37° C. in 5% CO2 in air. Confluent preadipocytes were induced to differentiate with a standard differentiation medium consisting of DMEM-F10 (1:1, vol/vol) medium supplemented with 1% FBS, 1 μM dexamethasone, IBMX (0.5 mM) and antibiotics (1% Penicillin-Streptomycin). Preadipocytes were maintained in this differentiation medium for 3 days and subsequently cultured in adipocyte medium. Cultures were re-fed every 2-3 days to allow 90% of cells to reach full differentiation before conducting chemical treatment. Chemicals were freshly diluted in adipocyte medium before treatment. Cells were washed with fresh adipocyte medium, re-fed with medium containing the different treatments, and incubated at 37° C. in 5% CO2 in air before analysis. Cell viability was measured via trypan blue exclusion. Adipocyte 18s, cyclin A, NADPH oxidase, and UCP2 were quantitatively measured using a Smart Cycler Real Time PCR System (Cepheid, Sunnyvale, Calif.) with a TaqMan 1000 Core Reagent Kit (Applied Biosystems, Branchburg, N.J.). The primers and probe sets were ordered from Applied Biosystems TaqMan® Assays-on-Demand™ Gene Expression primers and probe set collection according to manufacture's instruction. Pooled adipocyte total RNA was serial-diluted in the range of 1.5625-25 ng and used to establish a standard curve; total RNAs for unknown samples were also diluted in this range. Reactions of quantitative RT-PCR for standards and unknown samples were also performed according to the instructions of Smart Cycler System (Cepheid, Sunnyvale, Calif.) and TaqMan Real Time PCR Core Kit (Applied Biosystems, Branchburg, N.J.). The mRNA quantitation for each sample was further normalized using the corresponding 18s quantitation.

TNFα = TNFα expression in RAW 264 macrophages; assay type: cell-based
Method: as §1
Cells were washed with fresh adipocyte medium, re-fed with medium containing the indicated treatments, and incubated at 37° C. in 5% CO2 for 48 hours before analysis. Cell viability was measured via trypan blue exclusion.
as §2
Adipocyte and muscle 18s, CD14, TNFα, MIP, M-CSF, IL-6 and MCP-1 were quantitatively measured using a Smart Cycler Real Time PCR System (Cepheid, Sunnyvale, Calif.) with a TaqMan 1000 Core Reagent Kit (Applied Biosystems, Branchburg, N.J.). […] Reactions of quantitative RT-PCR for standards and unknown samples were also performed according to the instructions of Smart Cycler System (Cepheid, Sunnyvale, Calif.) and TaqMan Real Time PCR Core Kit (Applied Biosystems, Branchburg, N.J.). The mRNA quantitation for each sample was further normalized using the corresponding 18s quantitation.

SMILES: C=C1/C(=C\C=C2/CCC[C@]3(C)[C@@H]([C@H](C)CCCC(C)(C)O)CC[C@@H]23)C[C@@H](O)C[C@@H]1O [calcitriol, 1,25-(OH)2-D3]
- inflammatory cytokine production (3T3-L1 adipocytes [1]; co-culture of 3T3-L1 adipocytes with macrophages): further stimulated
- production of multiple inflammatory cytokine proteins (3T3-L1 adipocytes [1]; differentiated 3T3-L1 adipocytes cultured alone): up-regulated
- effect on high glucose induced ROS production (3T3-L1 adipocytes [2]): greater stimulation of ROS production than either glucose alone or glucose plus GDP
- effect on NADPH oxidase expression (NADPH oxidase): stimulated
- stimulation of TNFα expression (TNFα; RAW 264 macrophages cultured alone): 91%
- effect on TNFα expression in macrophages (TNFα; co-culture with differentiated 3T3-L1 adipocytes): further enhanced
